Results from patent publication US20260027068A1, “METHODS OF ADM[…]-KETAMINE” (Perception Neuroscience, Inc., priority 2022, published 2026).

System: subjects with TRD
Assay: Modified Observer's Assessment of Alertness/Sedation (MOAA/S)
Procedure: The Investigational Medicinal Product (IMP) R(−)-ketamine hydrochloride in sterile water for intravenous injection was investigated as an […] treatment of TRD. The International Union of Pure and Applied Chemistry (IUPAC) name is of the IMP is (2R)-2-(2-chlorophenyl)-2-(methylamino)cyclohexan-1-one. Subjects received the solution at either 30 mg or 60 mg dose, or a placebo. The IMP or placebo was administered on Day 1 as a single IV infusion via an electronic infusion pump over 40 minutes. The duration of study participation for each subject was up to 29 days including a screening period, a 3-day in-clinic visit, and 2 follow-up visits. 101 subjects were enrolled in approximately 20 study centers in the EU and the US.
The MOAA/S will were to determine if R(−)-ketamine causes the side effect of sedation and to what degree. Sedation was evaluated by the study staff using the MOAA/S. The observer recorded the subject's alertness pre-dose, every 20 minutes for first 2 hours post-dose, and at 4 and 6 hours after the start of the infusion.

[1] = 30 mg, 10 min post start of infusion, n 10
[2] = 30 mg, 20 min post start of infusion, n 33
[3] = 30 mg, 30 min post start of infusion, n 10
[4] = 30 mg, 40 min post start of infusion, n 33
[5] = 30 mg, 50 min post start of infusion, n 10
[6] = 30 mg, 1 hour 10 min post start of infusion, n 10
[7] = 30 mg, 1 hour 20 min post start of infusion, n 33
[8] = 30 mg, 1 hour 30 min post start of infusion, n 10
[9] = 30 mg, 1 hour 40 min post start of infusion, n 33
[10] = 30 mg, 1 hour 50 min post start of infusion, n 10
[11] = 30 mg, 1 hour post start of infusion, n 33
[12] = 30 mg, to 10 min post-start, n 10
[13] = 30 mg, to 20 min post-start, n 33
[14] = 30 mg, to 30 min post-start, n 10
[15] = 30 mg, to 40 min post-start, n 33
[16] = 30 mg, to 50 min post-start, n 10
[17] = 30 mg, to 1 hour 10 min post-start, n 10
[18] = 30 mg, to 1 hour 20 min post-start, n 33
[19] = 30 mg, to 1 hour 30 min post-start, n 10
[20] = 30 mg, to 1 hour 40 min post-start, n 33
[21] = 30 mg, to 1 hour 50 min post-start, n 10
[22] = 30 mg, to 1 hour post-start, n 33
[23] = 60 mg, 10 min post start of infusion, n 11
[24] = 60 mg, 20 min post start of infusion, n 35
[25] = 60 mg, 30 min post start of infusion, n 11
[26] = 60 mg, 40 min post start of infusion, n 35
[27] = 60 mg, 50 min post start of infusion, n 11
[28] = 60 mg, 1 hour 10 min post start of infusion, n 11
[29] = 60 mg, 1 hour 20 min post start of infusion, n 34
[30] = 60 mg, 1 hour 30 min post start of infusion, n 11

CN[C@@]1(c2ccccc2Cl)CCCCC1=O [PCN 101]
MOAA/S score, Mean [1]: 5.0
MOAA/S score, Median [1]: 5.0
MOAA/S score, Mean [2]: 4.9
MOAA/S score, Median [2]: 5.0
MOAA/S score, Mean [3]: 4.9
MOAA/S score, Median [3]: 5.0
MOAA/S score, Mean [4]: 4.8
MOAA/S score, Median [4]: 5.0
MOAA/S score, Mean [5]: 4.9
MOAA/S score, Median [5]: 5.0
MOAA/S score, Mean [6]: 5.0
MOAA/S score, Median [6]: 5.0
MOAA/S score, Mean [7]: 4.8
MOAA/S score, Median [7]: 5.0
MOAA/S score, Mean [8]: 5.0
MOAA/S score, Median [8]: 5.0
MOAA/S score, Mean [9]: 4.9
MOAA/S score, Median [9]: 5.0
MOAA/S score, Mean [10]: 5.0
MOAA/S score, Median [10]: 5.0
MOAA/S score, Mean [11]: 4.8
MOAA/S score, Median [11]: 5.0
MOAA/S score, Mean (30 mg, 2 hours, n 33): 5.0
MOAA/S score, Median (30 mg, 2 hours, n 33): 5.0
MOAA/S score, Mean (30 mg, 4 hours, n 31): 5.0
MOAA/S score, Median (30 mg, 4 hours, n 31): 5.0
MOAA/S score, Mean (30 mg, 6 hours, n 31): 5.0
MOAA/S score, Median (30 mg, 6 hours, n 31): 5.0
MOAA/S change from baseline, Mean [12]: 0.0
MOAA/S change from baseline, Median [12]: 0.0
MOAA/S change from baseline, Mean [13]: −0.1
MOAA/S change from baseline, Median [13]: 0.0
MOAA/S change from baseline, Mean [14]: −0.1
MOAA/S change from baseline, Median [14]: 0.0
MOAA/S change from baseline, Mean [15]: −0.2
MOAA/S change from baseline, Median [15]: 0.0
MOAA/S change from baseline, Mean [16]: −0.1
MOAA/S change from baseline, Median [16]: 0.0
MOAA/S change from baseline, Mean [17]: 0.0
MOAA/S change from baseline, Median [17]: 0.0
MOAA/S change from baseline, Mean [18]: −0.2
MOAA/S change from baseline, Median [18]: 0.0
MOAA/S change from baseline, Mean [19]: 0.0
MOAA/S change from baseline, Median [19]: 0.0
MOAA/S change from baseline, Mean [20]: −0.1
MOAA/S change from baseline, Median [20]: 0.0
MOAA/S change from baseline, Mean [21]: 0.0
MOAA/S change from baseline, Median [21]: 0.0
MOAA/S change from baseline, Mean [22]: −0.2
MOAA/S change from baseline, Median [22]: 0.0
MOAA/S change from baseline, Mean (30 mg, to 2 hours, n 33): −0.0
MOAA/S change from baseline, Median (30 mg, to 2 hours, n 33): 0.0
MOAA/S change from baseline, Mean (30 mg, to 4 hours, n 31): 0.0
MOAA/S change from baseline, Median (30 mg, to 4 hours, n 31): 0.0
MOAA/S change from baseline, Mean (30 mg, to 6 hours, n 31): 0.0
MOAA/S change from baseline, Median (30 mg, to 6 hours, n 31): 0.0
MOAA/S score, Mean [23]: 4.9
MOAA/S score, Median [23]: 5.0
MOAA/S score, Mean [24]: 4.8
MOAA/S score, Median [24]: 5.0
MOAA/S score, Mean [25]: 4.9
MOAA/S score, Median [25]: 5.0
MOAA/S score, Mean [26]: 4.8
MOAA/S score, Median [26]: 5.0
MOAA/S score, Mean [27]: 4.9
MOAA/S score, Median [27]: 5.0
MOAA/S score, Mean [28]: 5.0
MOAA/S score, Median [28]: 5.0
MOAA/S score, Mean [29]: 4.8
MOAA/S score, Median [29]: 5.0
MOAA/S score, Mean [30]: 5.0
MOAA/S score, Median [30]: 5.0
